Measured values taken from paper PMC5761330 (ACS chemical biology, 2017).

Assays:
CMV-Luc = CMV-Luc counter-screen in HEK293 cells; type: cell-based; conditions: increasing concentrations
Pax5 = Pax5 (Homo sapiens, UniProt Q02548); experiment: PRS4-Luc reporter activation by Pax5 in HEK293 cells; type: cell-based; conditions: dose response
Pax8 = Pax8 (Homo sapiens, UniProt Q06710); experiment: PRS4-Luc reporter activation by Pax8 in HEK293 cells; type: cell-based; conditions: dose response
[1] = tested on: BRE-Luc (P-Smad mediated transactivation); experiment: BMP dependent luciferase reporter; type: cell-based; conditions: HEK293 cells, in the presence of BMP4, increasing amounts
Pax2 = Pax2 (Mus musculus, UniProt P32114); experiment: PRS4-EGFP reporter, Western blot of EGFP; type: cell-based; conditions: PRS4-EGFP cells, increasing concentrations
[2] = target: recombinant Pax2 paired domain (amino acids 1–170) / PRS oligo (Mus musculus, UniProt P32114); experiment: Electrophoretic mobility shift assay; type: biochemical; conditions: EMSA
E11.5 kidney rudiments = experiment: Embryonic kidney organ culture, branching morphogenesis; set-up: species or system mouse; conditions: 48 h, highest dose
E11.5 lung rudiments = experiment: Embryonic lung organ culture, branching morphogenesis; set-up: species or system mouse; conditions: 48 h, increasing concentrations
kidney organ cultures = experiment: Pax2 target gene expression in kidney organ cultures; set-up: species or system mouse; conditions: kidney organ culture, 48 h
[3] = tested on: RCC111, TOV112D and ES-2 cells; experiment: Cell viability; type: cell-based; conditions: 48 h, 12.5 and 25 µM, Pax2 positive cells
[4] = tested on: 22Rv1, PC-3 and SK-OV-3 cells; experiment: Cell viability; type: cell-based; conditions: 48 h, 12.5 and 25 µM, Pax2 negative cells
[5] = tested on: RCC111, TOV112D and ES-2 cells; experiment: Phospho-histone H3 Western blot, Pax2 positive cancer cell lines; type: cell-based; conditions: increasing amounts
[6] = tested on: 22Rv1, PC-3 and SK-OV-3 cells; experiment: Phospho-histone H3 Western blot, Pax2 negative cancer cell lines; type: cell-based; conditions: increasing amounts

recombinant Pax2 paired domain (amino acids 1–170) / PRS oligo, sequence (P32114 1-170): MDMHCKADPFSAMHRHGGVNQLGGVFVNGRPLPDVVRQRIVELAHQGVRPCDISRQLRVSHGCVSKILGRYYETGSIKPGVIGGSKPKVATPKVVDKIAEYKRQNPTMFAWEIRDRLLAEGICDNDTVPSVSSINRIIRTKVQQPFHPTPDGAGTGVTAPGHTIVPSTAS
Pax8, sequence (Q06710 whole entry, species assumed): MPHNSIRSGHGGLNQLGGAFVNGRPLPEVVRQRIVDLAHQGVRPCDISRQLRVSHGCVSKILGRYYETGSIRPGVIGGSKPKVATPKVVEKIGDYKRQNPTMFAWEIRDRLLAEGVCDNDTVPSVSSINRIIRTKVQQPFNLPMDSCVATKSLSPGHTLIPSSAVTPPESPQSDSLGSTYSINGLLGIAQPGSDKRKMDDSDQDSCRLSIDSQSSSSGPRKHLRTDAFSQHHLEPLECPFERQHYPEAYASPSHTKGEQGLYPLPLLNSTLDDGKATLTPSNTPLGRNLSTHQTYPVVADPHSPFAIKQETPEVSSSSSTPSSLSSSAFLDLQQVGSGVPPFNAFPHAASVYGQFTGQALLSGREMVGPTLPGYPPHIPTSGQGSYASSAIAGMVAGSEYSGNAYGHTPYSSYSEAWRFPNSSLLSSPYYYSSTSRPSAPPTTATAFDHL
Pax5, sequence (Q02548 whole entry, species assumed): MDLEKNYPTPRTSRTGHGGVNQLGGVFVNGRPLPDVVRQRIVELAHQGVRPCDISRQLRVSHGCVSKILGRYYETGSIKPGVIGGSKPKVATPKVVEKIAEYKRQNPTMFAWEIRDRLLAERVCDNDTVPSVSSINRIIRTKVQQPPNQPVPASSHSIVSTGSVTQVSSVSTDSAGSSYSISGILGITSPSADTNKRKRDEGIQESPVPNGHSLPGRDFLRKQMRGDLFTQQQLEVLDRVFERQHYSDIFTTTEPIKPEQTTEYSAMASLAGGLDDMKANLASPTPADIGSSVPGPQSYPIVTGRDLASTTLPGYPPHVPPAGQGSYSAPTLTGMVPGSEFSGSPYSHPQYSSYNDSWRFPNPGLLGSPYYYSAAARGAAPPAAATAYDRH
Pax2, sequence (P32114 1-391 isoform P32114-2): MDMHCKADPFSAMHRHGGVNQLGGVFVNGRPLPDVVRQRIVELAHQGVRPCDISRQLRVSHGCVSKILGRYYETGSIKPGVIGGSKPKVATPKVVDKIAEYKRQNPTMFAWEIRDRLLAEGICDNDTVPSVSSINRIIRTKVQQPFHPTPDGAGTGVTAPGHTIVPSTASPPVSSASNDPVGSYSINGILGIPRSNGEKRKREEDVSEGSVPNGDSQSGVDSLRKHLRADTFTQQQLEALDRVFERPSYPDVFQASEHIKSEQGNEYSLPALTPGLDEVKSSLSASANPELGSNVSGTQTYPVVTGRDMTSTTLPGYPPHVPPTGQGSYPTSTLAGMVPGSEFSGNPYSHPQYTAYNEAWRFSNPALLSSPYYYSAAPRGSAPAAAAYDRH

In the case of COc1ccccc1C(=O)Nc1ccc(C(=O)Nc2ccccc2C(=O)O)cc1 [EG1], the “Inhibition of CMV-Luc in the counter-screen” value (CMV-Luc) was “no inhibitory effect”, the “Inhibition of PRS4-Luc activation by Pax5” value (Pax5) was “able to inhibit” and the “Inhibition of PRS4-Luc activation by Pax8” value (Pax8) was “able to inhibit”. For the same molecule, the “Effect on BRE-Luc reporter activity” value [1] was “unaffected”, the “Inhibition of Pax2 mediated expression of EGFP” value (Pax2) was “capable of inhibiting Pax2 mediated expression of EGFP” and the “Inhibition of Pax2-DNA binding” value ([2]; 10 µM) was “Significant inhibition”. The “Inhibition of Pax2-DNA binding” value ([2]; 100 µM) was “near complete inhibition”, the “Inhibition of branching morphogenesis” value (E11.5 kidney rudiments) was “up to 75%” and the “Effect on branching morphogenesis” value (E11.5 lung rudiments) was “no change in branching morphogenesis”. For the same molecule, the “Cited1 and HNF4a expression, qRT-PCR” value (kidney organ cultures) was “clear reduction”, the “Cited1 expression, whole mount in situ hybridization” value (kidney organ cultures) was “dramatic reduction in expression levels” and the “FoxD1, Msx1 and Twist2 (stromal genes) expression, qRT-PCR” value (kidney organ cultures) was “increased levels”. The Cell viability [3] was “significant decrease in cell viability”, the Cell viability [4] was “none of the Pax2 negative cells were affected” and the “Levels of phospho–histone H3 (P–H3)” value [5] was “decreased levels of P–H3”. For the same molecule, the “Levels of phospho–histone H3 (P–H3)” value [6] was “unchanged”.
